B1: FRP-1: frizzled related protein, secreted protein that antagonizes the Wnt signaling pathway (protein, UniProt Q8N474 32-314, looked up)
Secreted frizzled-related …: SEYDYVSFQSDIGPYQSGRFYTKPPQCVDIPADLRLCHNVGYKKMVLPNLLEHETMAEVKQQASSWVPLLNKNCHAGTQVFLCSLFAPVCLDRPIYPCRWLCEAVRDSCEPVMQFFGFYWPEMLKCDKFPEGDVCIAMTPPNATEASKPQGTTVCPPCDNELKSEAIIEHLCASEFALRMKIKEVKKENGDKKIVPKKKKPLKLGPIKKKDLKKLVLYLKNGADCPCHQLDNLSHHFLIMGRKVKSQYLLTAIHKWDKKNKEFKNFMKKMKNHECPTFQSVFK

How the values were obtained:
[1] = system: GSK-3; settings: literature report; cited from earlier work
[2] = system: central and peripheral neurons grown in culture; settings: death induced by reduced phosphatidyl inositol pathway activity (Cross et al.); cited from earlier work
[3] = system: perfused human ocular anterior segments; assay: Outflow rate in perfused human ocular anterior segments maintained in culture
Protocol: (§1) Recently it has been discovered that frizzled related protein (FRP) is differentially expressed in a number of glaucomatous trabecular meshwork cell lines. […] The decreased flow rate in the cultured anterior segments models an increase in resistance to outflow (increase in intraocular pressure) in intact eye.
Human ocular anterior segments are perfused with Dulbecco's modified Eagle's medium (DMEM) at a constant pressure of 11 mm Hg. The outflow rate of each eye is measured by weighing its reservoir at specified periods. After a stabilization period, the eyes are perfused with either vehicle or FRP-1 (10 μg/ml) and their outflow rates monitored for 2-5 days. […] Inhibitor is added and the anterior segment is perfused for an additional 2-4 days. Outflow rate is measured by weighing its reservoir at specific periods.

[4] = system: β-catenin; assay: β-catenin protein levels in ciliary body and trabecular meshwork of perfused anterior segments; set-up: species or system human; settings: ciliary body and trabecular meshwork (TM) after FRP-1 perfusion
Text: as §1

Row | Molecule | GSK-3 inhibition [1] | protection of neurons from death [2] | also measured
1 | CN(C)CCCn1cc(C2=C(c3c[nH]c4ccccc34)C(=O)NC2=O)c2ccccc21 [GF1092] | inhibitors of GSK-3 | – | –
2 | Cn1cc(C2=C(c3cn(CCCSC(=N)N)c4ccccc34)C(=O)NC2=O)c2ccccc21 [Ro 31-8220] | inhibitors of GSK-3 | – | –
3 | Cn1cc(C2=C(c3ccc(Cl)cc3Cl)C(=O)NC2=O)c2ccccc21 [SB216763] | – | protected both central and peripheral neurons | –
4 | O=C1NC(=O)C(c2ccccc2[N+](=O)[O-])=C1Nc1ccc(O)c(Cl)c1 [SB-415286] | – | protected both central and peripheral neurons | –
5 | B1 | – | – | aqueous humor outflow ([3]; FRP-1 10 μg/ml, constant pressure 11 mm Hg, outflow monitored 2-5 days): decrease in aqueous humor outflow; flowrate ([3]; perfusion of FRP-1 through perfused human ocular anterior segments in culture): decrease in flowrate; β-catenin protein levels [4]: decrease in β-catenin protein levels

From US20090312390A1, “INHIBITORS OF GLYCOGEN SYNTHASE KINASE-3 (GSK-3) FOR TREATING GLAUCOMA” (ALCON, INC., priority 2001, published 2009)
